Measurements published in ChEMBL document CHEMBL5154737, “Semisynthesis and biological evaluation of (+)-sclerotiorin derivatives as antitumor agents for the treatment of hepatocellular carcinoma” (Eur J Med Chem, 2022).
Activity calls are given as the source filed them. No cut-off for these calls is given here.

Key:
[1] = Drug elimination in mouse bearing tumor measured after 24 hr by ICG dye based fluorescence imaging; type: ADME; conditions: in vivo
Bel-7402 [2] = assay: Induction of apoptosis in human Bel-7402 cells assessed as late apoptotic cells at 0.625 uM incubated for 24 hrs by Annexin V and dead cell assay kit (reference value: 4.45 %); type: functional
Bel-7402 [3] = assay: Upregulation of total protein ubiquitination level in human Bel-7402 cells by Western blot analysis; type: functional, cell-based; conditions: dose <= 10.0 µM, DDE = dose-dependent effect
[4] = Chronic toxicity in ICR mouse assessed as effect on liver morphology at 100 mg/kg, ip qd measured after 26 days by H and E staining method; type: organism-based; conditions: in vivo, 624 h, time 26 day
[5] = Toxicity in ICR mouse assessed as change in hemoglobin level at 100 mg/kg, ip qd (reference value: 124 g/L); type: organism-based; conditions: in vivo
Bel-7402 [6] = assay: Induction of apoptosis in human Bel-7402 cells assessed as viable cells at 2.5 uM incubated for 24 hrs by Annexin V and dead cell assay kit (reference value: 91.00%); type: functional; conditions: read-out: Activity
[7] = Toxicity in ICR mouse assessed as change in mean platelet volume at 100 mg/kg, ip qd (reference value: 5.6 fL); type: organism-based; conditions: in vivo
Bel-7402 [8] = assay: Induction of apoptosis in human Bel-7402 cells assessed as viable cells at 2.5 uM incubated for 24 hrs by Annexin V and Dead cell kit assay (reference value: 90.82 %); type: functional; conditions: read-out: Activity
[9] = Toxicity in ICR mouse assessed as change in mean corpuscular hemoglobin concentration at 100 mg/kg, ip qd (reference value: 343 g/L); type: organism-based; conditions: in vivo
Bel-7402 [10] = assay: Induction of ERK degradation in human Bel-7402 cells at 2.5 uM incubated for 24 hrs in presence of Z-vad-fmk by Western blot analysis; type: cell-based
[11] = Toxicity in ICR mouse assessed as change in mean corpuscular hemoglobin level at 100 mg/kg, ip qd (reference value: 17.5 pg); type: organism-based; conditions: in vivo
[12] = Cytotoxicity against human Biu-87 cells assessed as reduction in cell viability incubated for 72 hrs by MTT assay; type: functional, cell-based; conditions: BIU87, 72 h
[13] = Acute toxicity in ICR mouse assessed as body weight change at 100 to 500 mg/kg, ip; type: organism-based; conditions: in vivo, dose 100-500 mg/kg
[14] = Toxicity in ICR mouse assessed as change in plateletcrit level at 100 mg/kg, ip qd (reference value: 0.415 %); type: organism-based; conditions: in vivo
Bel-7402 [15] = assay: Induction of apoptosis in human Bel-7402 cells assessed as viable cells at 2.5 uM incubated for 24 hrs in presence of U0126 by Annexin V and Dead cell kit assay (reference value: 90.82 %); type: functional; conditions: read-out: Activity
[16] = Toxicity in ICR mouse assessed as change in red blood cell specific volume at 100 mg/kg, ip qd (reference value: 36.1 %); type: organism-based; conditions: in vivo
Bel-7402 [17] = assay: Antitumor activity against human Bel-7402 cells xenografted in BALB/c nude mouse assessed as reduction in tumor growth at 20 mg/kg, ip qd measured every 2 days for 14 days; type: functional, organism-based; conditions: time 14.0 day
Bel-7402 [18] = assay: Inhibition of cell proliferation in human Bel-7402 cells assessed as inhibition of colony formation incubated for 10 days by crystal violet based plate clone formation assay; type: functional; conditions: dose <= 2.0 µM, time 10.0 day, DDE = dose-dependent effect
[19] = Toxicity in ICR mouse assessed as change in platelet count at 100 mg/kg, ip qd (reference value: 742 10^9/L); type: organism-based; conditions: in vivo
Bel-7402 [20] = assay: Induction of ERK degradation in human Bel-7402 cells at 2.5 uM incubated for 24 hrs in presence of choro-quine by Western blot analysis; type: cell-based
Bel-7402 [21] = assay: Induction of apoptosis in human Bel-7402 cells assessed as increase in cleaved caspase-9 upto 2.5 uM incubated for 24 hrs by Western blot analysis; type: functional, cell-based
Bel-7402 [22] = assay: Induction of AKT degradation in human Bel-7402 cells at 2.5 uM incubated for 24 hrs in presence of Z-vad-fmk by Western blot analysis; type: cell-based
Bel-7402 [23] = assay: Induction of apoptosis in human Bel-7402 cells assessed as dead cells at 0.313 uM incubated for 24 hrs by Annexin V and dead cell assay kit (reference value: 0.80 %); type: functional
Bel-7402 [24] = assay: Induction of apoptosis in human Bel-7402 cells assessed as late apoptotic cells at 2.5 uM incubated for 24 hrs by Annexin V and Dead cell kit assay (reference value: 3.85 %); type: functional
[25] = Biodistribution in lung of mouse bearing tumor measured after 24 hr by ICG dye based fluorescence imaging; type: ADME, organism-based; conditions: in vivo
Bel-7402 [26] = assay: Induction of apoptosis in human Bel-7402 cells assessed as late apoptotic cells at 0.313 uM incubated for 24 hrs by Annexin V and dead cell assay kit (reference value: 4.45 %); type: functional
[27] = Toxicity in ICR mouse assessed as change in neutrophile granulocyte level at 100 mg/kg, ip qd (reference value: 21.6 %); type: organism-based; conditions: in vivo
Bel-7402 [28] = assay: Cytotoxicity against human Bel-7402 cells assessed as reduction in cell viability incubated for 72 hrs by MTT assay; type: functional, cell-based; conditions: Bel-7402, 72 h
Bel-7402 [29] = assay: Induction of apoptosis in human Bel-7402 cells assessed as late apoptotic cells at 2.5 uM incubated for 24 hrs in presence of U0126 by Annexin V and Dead cell kit assay (reference value: 3.85 %); type: functional
PANC-1 = assay: Cytotoxicity against human PANC-1 cells assessed as reduction in cell viability incubated for 72 hrs by MTT assay; type: functional, cell-based; conditions: PANC-1, 72 h
[30] = Biodistribution in kidney of mouse bearing tumor measured after 24 hr by ICG dye based fluorescence imaging; type: ADME, organism-based; conditions: in vivo
[31] = Tmax in Sprague-Dawley rat at 20 mg/kg, ip measured for 0.03 to 24 hrs by UPLC-MS analysis; type: ADME, organism-based; conditions: in vivo, time 0.03-24 hrs
Bel-7402 [32] = assay: Induction of apoptosis in human Bel-7402 cells assessed as early apoptotic cells at 2.5 uM incubated for 24 hrs by Annexin V and dead cell assay kit (reference value: 3.75 %); type: functional
Bel-7402 [33] = assay: Induction of apoptosis in human Bel-7402 cells assessed as dead cells at 5 uM incubated for 24 hrs by Annexin V and dead cell assay kit (reference value: 0.80 %); type: functional
[34] = Sub-chronic toxicity in ICR mouse assessed as change in amount of food intake at 100 mg/kg/day, ip for 26 days; type: organism-based; conditions: in vivo, 624 h, time 26 day
[35] = Biodistribution in tumor of mouse bearing tumor measured after 4 hr by ICG dye based fluorescence imaging; type: ADME, organism-based, Neoplasm; conditions: in vivo
[36] = Acute toxicity in ICR mouse assessed as change in amount of food intake at 100 to 500 mg/kg, ip; type: organism-based; conditions: in vivo, dose 100-500 mg/kg
ECa-109 cell line = assay: Cytotoxicity against human Eca-109 cells assessed as reduction in cell viability incubated for 72 hrs by MTT assay; type: functional, cell-based; conditions: ECa-109, 72 h
Bel-7402 [37] = assay: Cytotoxicity against human Bel-7402 cells assessed as inhibition of cell growth incubated for 72 hrs by MTT assay; type: functional, cell-based; conditions: dose 5.0 µM, DDE = dose-dependent effect

SMILES: CC[C@H](C)/C=C(C)/C=C/C1=CC2=C(Cl)C(=O)[C@](C)(O)C(=O)C2=CN1Cc1ccc(OC(F)(F)F)cc1
- Drug excretion [1]: Metabolite_Detected
- Activity (Bel-7402 [2]): 3.1%
- Activity (Bel-7402 [3]): Dde
- Activity [4]: Non-Toxic
- Activity [5]: 141 g/L
- viability at 2.5 µM (Bel-7402 [6]): 44.9%
- Activity [7]: 6.7 fL
- viability at 2.5 µM (Bel-7402 [8]): 25.1%
- Activity [9]: 306 g/L
- Activity (Bel-7402 [10]): Active
- Activity [11]: 16.8 pg
- IC50 [12]: 2760 nM
- Activity [13]: Non-Toxic
- Activity [14]: 0.407%
- viability at 2.5 µM (Bel-7402 [15]): 29.2%
- Activity [16]: 46%
- TGI (Bel-7402 [17]): Active
- Activity (Bel-7402 [18]): Dde
- Activity [19]: 608 10^9/L
- Activity (Bel-7402 [20]): Active
- Activity (Bel-7402 [21]): Active
- Activity (Bel-7402 [22]): Active
- Activity (Bel-7402 [23]): 0.35%
- Activity (Bel-7402 [24]): 37.9%
- Activity [25]: Active
- Activity (Bel-7402 [26]): 1.6%
- Activity [27]: 41.6%
- IC50 (Bel-7402 [28]): 1150 nM
- Activity (Bel-7402 [29]): 36.9%
- IC50 (PANC-1): 2290 nM
- Activity [30]: Active
- Tmax [31]: 45 min
- Activity (Bel-7402 [32]): 16.55%
- Activity (Bel-7402 [33]): 8.15%
- Activity [34]: Non-Toxic
- Activity [35]: Active
- Activity [36]: Non-Toxic
- IC50 (ECa-109 cell line): 1160 nM
- Activity (Bel-7402 [37]): Dde
